The record followed here is DBAASP.

The structures appear in SMILES notation. In brackets after ≈: the same amount, converted by molar mass.

As a reminder, the MIC is the least concentration at which growth counts as inhibited. Higher therefore signals a need for much substance.

Assay in all cases: ≥ marks a high value that may be exact or a test limit, other limits are often not marked, values filed in µg/mL are converted to µM
Experiment [1] concerns Escherichia coli JW0013.
For experiment [2], the system named is Pseudomonas aeruginosa Ps4.
Experiment [3] concerns Escherichia coli UB1005.
Experiment [4] deals with Pseudomonas aeruginosa PAO1.
Experiment [5] has as its system Staphylococcus aureus ATCC 25923.
The test system of experiment [6] is Bacillus subtilis.
For experiment [7], the system named is Candida albicans ATCC 2002.
Experiment [8] concerns Escherichia coli ATCC 25922.
The subject of experiment [9] is Staphylococcus aureus ATCC 2592.

`CC[C@H](C)[C@H](NC(=O)[C@H](CCCN=C(N)N)NC(=O)[C@H](CCCN=C(N)N)NC(=O)[C@@H]1CCCN1C(=O)[C@@H]1CCCN1C(=O)[C@H](CCCN=C(N)N)NC(=O)[C@@H]1CCCN1C(=O)[C@H](CCCN=C(N)N)NC(=O)[C@@H]1CCCN1C(=O)[C@H](CC(C)C)NC(=O)[C@H](CCCN=C(N)N)NC(=O)[C@H](Cc1cnc[nH]1)NC(=O)[C@H](CCCN=C(N)N)NC(=O)[C@H](CCCCN)NC(=O)[C@H](CC(=O)O)NC(=O)[C@@H](N)C(C)C)C(=O)N[C@@H](Cc1ccc(O)cc1)C(=O)N[C@@H](CC(N)=O)C(=O)N[C@@H](CCCN=C(N)N)C(N)=O` [VDKRHRLPRPRPPRRIYNR] showed a minimum inhibitory concentration (MIC) in experiment [1] of 0.524 µM (≈ 1.3 µg/mL).

For `CC[C@H](C)[C@H](NC(=O)[C@H](CCCN=C(N)N)NC(=O)[C@@H](NC(=O)[C@H](CC(N)=O)NC(=O)[C@H](CCCN=C(N)N)NC(=O)CNC(=O)[C@H](Cc1c[nH]c2ccccc12)NC(=O)[C@@H](N)Cc1ccccc1)[C@@H](C)CC)C(=O)N[C@@H](CCCN=C(N)N)C(=O)N[C@@H](CCCN=C(N)N)C(N)=O` [FWGRNIRIRR], the minimum inhibitory concentration (MIC) in experiment [2] is at least 182 µM.

On to `CC[C@H](C)[C@H](NC(=O)[C@H](CCCCN)NC(=O)[C@H](CCCN=C(N)N)NC(=O)[C@@H](NC(=O)[C@H](CC(N)=O)NC(=O)[C@H](CCCN=C(N)N)NC(=O)[C@H](CCC(N)=O)NC(=O)[C@H](Cc1c[nH]c2ccccc12)NC(=O)[C@@H](N)Cc1ccccc1)[C@@H](C)CC)C(=O)N[C@@H](CCCN=C(N)N)C(N)=O` [FWQRNIRKIR], for which, in [2], the minimal inhibitory concentration (MIC) is at least 176 µM.

`NC(=O)CC[C@H](NC(=O)[C@H](Cc1c[nH]c2ccccc12)NC(=O)[C@@H](N)Cc1ccccc1)C(=O)N[C@@H](CCCN=C(N)N)C(=O)N[C@@H](CC(N)=O)C(=O)N[C@@H](Cc1c[nH]c2ccccc12)C(=O)N[C@@H](CCCN=C(N)N)C(=O)N[C@@H](Cc1ccccc1)C(=O)N[C@@H](CCCN=C(N)N)C(=O)N[C@@H](CCCN=C(N)N)C(N)=O` [FWQRNWRFRR] showed a minimal inhibitory concentration (MIC) in experiment [2] of at least 161 µM.

Turning to `CC[C@H](C)[C@H](NC(=O)[C@H](CC(N)=O)NC(=O)[C@H](CCCN=C(N)N)NC(=O)[C@H](C)NC(=O)[C@H](Cc1c[nH]c2ccccc12)NC(=O)[C@@H](NC(=O)[C@@H](N)Cc1ccccc1)C(C)C)C(=O)N[C@@H](CCCN=C(N)N)C(=O)N[C@@H](CCCCN)C(=O)N[C@H](C(=O)N[C@@H](CCCN=C(N)N)C(N)=O)C(C)C` [FVWARNIRKVR], in [2], the minimum inhibitory concentration (MIC) was at least 173 µM.

On to `CC[C@H](C)[C@H](NC(=O)[C@H](CCCN=C(N)N)NC(=O)[C@H](CCCN=C(N)N)NC(=O)[C@@H]1CCCN1C(=O)[C@@H]1CCCN1C(=O)[C@H](CCCN=C(N)N)NC(=O)[C@H](CCCN=C(N)N)NC(=O)[C@H](CCCN=C(N)N)NC(=O)[C@@H]1CCCN1C(=O)[C@H](CC(C)C)NC(=O)[C@H](Cc1ccc(O)cc1)NC(=O)[C@@H]1CCCN1C(=O)[C@@H]1CCCN1C(=O)[C@H](CCCCN)NC(=O)[C@H](CC(=O)O)NC(=O)[C@@H](N)C(C)C)C(=O)N[C@@H](Cc1ccc(O)cc1)C(=O)N[C@@H](CC(N)=O)C(=O)N[C@@H](CCCN=C(N)N)C(N)=O` [VDKPPYLPRRRPPRRIYNR], for which the minimum inhibitory concentration (MIC) in experiment [1] worked out at 0.98 µM (≈ 2.4 µg/mL); in experiment [3], 2.04 µM (≈ 5 µg/mL); in experiment [4], 26.1 µM (≈ 64 µg/mL); in [5] it was 6.53 µM (≈ 16 µg/mL).

In experiment [2], `CC[C@H](C)[C@H](NC(=O)[C@H](CC(N)=O)NC(=O)[C@H](CCCN=C(N)N)NC(=O)[C@H](CCC(N)=O)NC(=O)[C@H](Cc1c[nH]c2ccccc12)NC(=O)[C@@H](N)Cc1ccccc1)C(=O)N[C@@H](CCCN=C(N)N)C(=O)N[C@@H](CCCCN)C(=O)N[C@@H](CC(C)C)C(=O)N[C@@H](CCCN=C(N)N)C(N)=O` [FWQRNIRKLR] showed an MIC of at least 176 µM.

Take `CC[C@H](C)[C@H](NC(=O)[C@H](CCCN=C(N)N)NC(=O)[C@H](CCCN=C(N)N)NC(=O)[C@@H]1CCCN1C(=O)[C@@H]1CCCN1C(=O)[C@H](CCCN=C(N)N)NC(=O)[C@@H]1CCCN1C(=O)[C@H](CCCN=C(N)N)NC(=O)[C@@H]1CCCN1C(=O)[C@H](CC(C)C)NC(=O)[C@H](Cc1ccc(O)cc1)NC(=O)[C@@H]1CCCN1C(=O)[C@H](CC(=O)O)NC(=O)[C@H](CCCCN)NC(=O)[C@H](CC(=O)O)NC(=O)[C@@H](N)C(C)C)C(=O)N[C@@H](Cc1ccc(O)cc1)C(=O)N[C@@H](CC(N)=O)C(=O)N[C@@H](CCCN=C(N)N)C(N)=O` [VDKDPYLPRPRPPRRIYNR]: in experiment [1], the MIC came out at 1.99 µM (≈ 4.8 µg/mL).

As for `CC[C@H](C)[C@H](NC(=O)[C@H](CCCN=C(N)N)NC(=O)[C@H](CCCN=C(N)N)NC(=O)[C@@H]1CCCN1C(=O)[C@@H]1CCCN1C(=O)[C@H](CCCN=C(N)N)NC(=O)[C@H](CCCN=C(N)N)NC(=O)[C@H](CCCN=C(N)N)NC(=O)[C@@H]1CCCN1C(=O)[C@H](CCCN=C(N)N)NC(=O)[C@H](Cc1ccc(O)cc1)NC(=O)[C@@H]1CCCN1C(=O)[C@H](CCCCN)NC(=O)[C@H](CCCCN)NC(=O)[C@H](CC(=O)O)NC(=O)[C@@H](N)C(C)C)C(=O)N[C@@H](Cc1ccc(O)cc1)C(=O)N[C@@H](CC(N)=O)C(=O)N[C@@H](CCCN=C(N)N)C(N)=O` [VDKKPYRPRRRPPRRIYNR], the MIC in experiment [1] came out at 0.634 µM (≈ 1.6 µg/mL).

In experiment [1], `CC[C@H](C)[C@H](NC(=O)[C@H](CCCN=C(N)N)NC(=O)[C@H](CCCN=C(N)N)NC(=O)[C@@H]1CCCN1C(=O)[C@@H]1CCCN1C(=O)[C@H](CCCN=C(N)N)NC(=O)[C@@H]1CCCN1C(=O)[C@H](CCCN=C(N)N)NC(=O)[C@@H]1CCCN1C(=O)[C@H](CC(C)C)NC(=O)[C@H](CCCCN)NC(=O)[C@@H]1CCCN1C(=O)[C@@H]1CCCN1C(=O)[C@H](CCCCN)NC(=O)[C@H](CC(=O)O)NC(=O)[C@@H](N)C(C)C)C(=O)N[C@@H](Cc1ccc(O)cc1)C(=O)N[C@@H](CC(N)=O)C(=O)N[C@@H](CCCN=C(N)N)C(N)=O` [VDKPPKLPRPRPPRRIYNR] gave a minimal inhibitory concentration (MIC) of 2.04 µM (≈ 4.8 µg/mL).

The compound `CC[C@H](C)[C@H](NC(=O)[C@H](CC(N)=O)NC(=O)[C@H](CCCN=C(N)N)NC(=O)[C@H](CCC(N)=O)NC(=O)[C@H](Cc1c[nH]c2ccccc12)NC(=O)[C@@H](N)Cc1ccccc1)C(=O)N[C@@H](Cc1c[nH]c2ccccc12)C(=O)N[C@@H](CCCN=C(N)N)C(=O)N[C@@H](CCCN=C(N)N)C(N)=O` [FWQRNIWRR] returned an MIC in experiment [2] of at least 184 µM.

With `CC[C@H](C)[C@H](NC(=O)[C@H](CC(C)C)NC(=O)[C@H](CC(=O)O)NC(=O)[C@H](CCC(N)=O)NC(=O)[C@H](CCC(N)=O)NC(=O)[C@H](CC(C)C)NC(=O)[C@H](CCC(=O)O)NC(=O)[C@@H]1CCCN1C(=O)[C@@H](N)Cc1ccc(O)cc1)C(=O)N[C@@H](C)C(=O)N[C@@H](CCCN=C(N)N)C(=O)N[C@@H](CC(C)C)C(=O)N[C@@H](CC(C)C)C(=O)O` [YPELQQDLIARLL], the MIC in experiment [6] turned out to be 1.97 µM (≈ 3.1 µg/mL); in experiment [7] it was 15.9 µM (≈ 25 µg/mL); in [8], 31.8 µM (≈ 50 µg/mL); in experiment [9] it was 4.01 µM (≈ 6.3 µg/mL).

Regarding `CC[C@H](C)[C@H](NC(=O)[C@H](CCCN=C(N)N)NC(=O)[C@H](CCCN=C(N)N)NC(=O)[C@@H]1CCCN1C(=O)[C@@H]1CCCN1C(=O)[C@H](CCCN=C(N)N)NC(=O)[C@@H]1CCCN1C(=O)[C@H](CCCN=C(N)N)NC(=O)[C@@H]1CCCN1C(=O)[C@H](CC(C)C)NC(=O)[C@H](CCCN=C(N)N)NC(=O)[C@@H]1CCCN1C(=O)[C@@H]1CCCN1C(=O)[C@H](CCCCN)NC(=O)[C@H](CC(=O)O)NC(=O)[C@@H](N)C(C)C)C(=O)N[C@@H](Cc1ccc(O)cc1)C(=O)N[C@@H](CC(N)=O)C(=O)N[C@@H](CCCN=C(N)N)C(N)=O` [VDKPPRLPRPRPPRRIYNR], in [1], the MIC came to 1.38 µM (≈ 3.3 µg/mL).
